Legend:
[1] = tested on: human follicular dermal papilla cells (HFDPCs); experiment: MTT assay, stimulation of proliferation of human follicular dermal papilla cells; type: cell-based; settings: sphinganine 0.3 μg/ml; creatine 10 μg/ml; caffeine 10 μg/ml; 0.1% (v/v) ethanol; incubation 24 hours
Method: The cells were sown in a cell density of about 6300 cells/cm^2 in a T75 bottle with follicle dermal papilla cell growth medium (for short: growth medium) and then incubated at 37° C., 5% CO2. After 1 day, media exchange was carried out. After a further 3 days, the medium was removed, the cells were washed with PBS (phosphate buffered saline) (without Mg^2+ and Ca^2+), detached by accutase treatment; the cell count is determined and then the cells are sown in a concentration of about 5500 cells/cm^2 in new T75 bottles in growth medium and further cultivated under identical conditions as described above. After 1 and 3 days, media exchange was carried out. After 1 further day, the medium was removed, the cells were washed in PBS (without Mg^2+ and Ca^2+), detached by accutase treatment and then sown in a concentration of about 10 000 cells/cm^2 into the cavities of 6-well cell culture plates with 2.5 ml of growth medium in each case. After 1 day, media exchange was carried out, and the test substances—diluted in fresh medium—were applied. […] All cultivations were carried out in the presence of 0.1% (v/v) ethanol and a corresponding vehicle control was performed at the same time. After incubation for 24 hours, an MTT assay was carried out. The activity in the MTT test indicates the activity of the mitochondrial dehydrogenase and is a marker for the cell vitality and the proliferation capacity. Firstly, a 10 mg/ml stock solution of the MTT reagent (Thiazolyl Blue Tetrazolium Bromide, Sigma Aldrich M5655) in PBS was prepared. The stock solution was then diluted with growth medium to an end concentration of 1 mg/ml MTT reagent. The cells were washed with PBS (without Mg^2+ and Ca^2+) and incubated with 1 ml of growth medium with MTT reagent for 3 h at 37° C. […] The absorption of the extracts was determined by spectrophotometry at a wavelength of 550 nm. The optical density of the extracts from the cells treated only with the vehicle is regarded as the reference (100%), all of the other measured values are quantified relative to the reference sample.

ex vivo hair follicles = ex vivo hair follicles kept in culture; EP0790053; cited from earlier work
[2] = tested on: in vitro cultivated keratinocytes; settings: EP0790053; cited from earlier work

Cn1c(=O)c2c(ncn2C)n(C)c1=O [caffeine]
cell proliferation (MTT, optical density at 550 nm relative to vehicle control = 100%) [1]: 102.5%

CN(CC(=O)O)C(=N)N [creatine]
cell proliferation (MTT, optical density at 550 nm relative to vehicle control = 100%) [1]: 104.0%

CCCCCCCCCCCCCCC[C@@H](O)[C@@H](N)CO [sphinganine]
cell proliferation (MTT, optical density at 550 nm relative to vehicle control = 100%) [1]: 103.9% | lifespan of the hair follicles (ex vivo hair follicles): increases the lifespan of the hair follicles | effect on growth of keratinocytes [2]: growth-promoting effect

— patent publication US9913789B2, “Formulations containing sphinganine” (Evonik Degussa GmbH, priority 2013, dated 2018)
